Test results: ChEMBL document CHEMBL1201862, “PubChem BioAssay data set” (2004)
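A five-concentration, 48-hour dose response in 96-well plates underlies each endpoint, interpolated linearly between surrounding concentrations. GI50 marks 50% less growth.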 Calls of active or inactive are those of the source. Cut-off read from the data, not from the text of the source: active = GI50 up to about 1.1 µM and inactive = higher.

Experiments:
Assay in all cases: NCI-60 cell line screen, 48 h
CCRF-CEM = test system: CCRF-CEM
COLO 205 = test system: COLO 205
HCT-15 = test system: HCT-15
HL-60 = test system: HL-60
K562 = test system: K562
KM-20L2 = test system: KM-20L2
M14 = test system: M14
MDA-MB-231 = test system: MDA-MB-231
MDA-N = test system: MDA-N
MOLT-4 = test system: MOLT-4
OVCAR-8 = test system: OVCAR-8
SW-620 = test system: SW-620
CAKI-1 = test system: CAKI-1
HOP-92 = test system: HOP-92
KM12 = test system: KM12
NCI-H226 = test system: NCI-H226
OVCAR-5 = test system: OVCAR-5
SF-268 = test system: SF-268
SNB-19 = test system: SNB-19
Hs-578T = test system: Hs-578T

Row | SMILES | GI50 (CCRF-CEM) | GI50 (COLO 205) | GI50 (HCT-15) [µM] | GI50 (HL-60) | GI50 (K562) | GI50 (KM-20L2) | GI50 (M14) | GI50 (MDA-MB-231) | GI50 (MDA-N) | GI50 (MOLT-4) | GI50 (OVCAR-8) | GI50 (SW-620) | GI50 (CAKI-1) | GI50 (HOP-92) | GI50 (KM12) | GI50 (NCI-H226) | GI50 (OVCAR-5) | GI50 (SF-268) | GI50 (SNB-19) | GI50 (Hs-578T)
1 | COc1ccc(CC2C(=O)NC(C)C(=O)N(C)C3Cc4ccc(cc4)Oc4cc(ccc4O)CC(C(=O)NC(C)C(=O)NC(C)C(=O)N2C)N(C)C3=O)cc1 (stereo not drawn) | 0.0175 µM (active) | 0.0175 µM (active) | 0.851 | 0.0175 µM (active) | 0.0175 µM (active) | 0.0175 µM (active) | 0.0027 µM (active) | < 0.0001 µM (active) | < 0.0001 µM (active) | 0.0175 µM (active) | 0.0191 µM (active) | 0.0177 µM (active) | – | – | – | – | – | – | – | –
2 | CC(=O)OC1COC(n2c(=S)n(-c3ccc(C)cc3)c(=O)c3ccccc32)C(OC(C)=O)C1OC(C)=O (stereo not drawn) | – | > 100 µM (inactive) | > 100 | – | – | > 100 µM (inactive) | > 100 µM (inactive) | – | – | > 100 µM (inactive) | 68.2 µM (inactive) | > 100 µM (inactive) | > 100 µM (inactive) | 45.8 µM (inactive) | > 100 µM (inactive) | > 100 µM (inactive) | > 100 µM (inactive) | > 100 µM (inactive) | > 100 µM (inactive) | –
3 | O=S(=O)(N/N=C/c1cccc(/C=N/NS(=O)(=O)c2ccccc2)c1)c1ccccc1 | 76.4 µM (inactive) | 38.3 µM (inactive) | 80.5 | 63.4 µM (inactive) | 60.4 µM (inactive) | > 100 µM (inactive) | > 100 µM (inactive) | – | – | 84.5 µM (inactive) | 55.5 µM (inactive) | – | – | 38.9 µM (inactive) | 58.6 µM (inactive) | > 100 µM (inactive) | > 100 µM (inactive) | > 100 µM (inactive) | – | –
4 | CC(C)OC(=O)c1cccnc1/C=N/O | > 100 µM (inactive) | > 100 µM (inactive) | > 100 | > 100 µM (inactive) | > 100 µM (inactive) | > 100 µM (inactive) | > 100 µM (inactive) | – | – | > 100 µM (inactive) | > 100 µM (inactive) | > 100 µM (inactive) | > 100 µM (inactive) | – | > 100 µM (inactive) | > 100 µM (inactive) | > 100 µM (inactive) | > 100 µM (inactive) | > 100 µM (inactive) | –
5 | Cc1[nH]c2ccccc2c1C1Cc2ccccc2N1C(=O)/C(Cl)=C/c1ccccc1 (stereo not drawn) | > 73.1 µM (inactive) | > 100 µM (inactive) | > 100 | 98.2 µM (inactive) | 70.3 µM (inactive) | > 100 µM (inactive) | > 100 µM (inactive) | – | – | 15.2 µM (inactive) | > 100 µM (inactive) | > 100 µM (inactive) | 50.6 µM (inactive) | > 100 µM (inactive) | > 100 µM (inactive) | > 69 µM (inactive) | > 100 µM (inactive) | > 78.9 µM (inactive) | > 100 µM (inactive) | –
6 | CCC1CCCCN1CC(C(C)=O)C(c1ccccc1)c1c(O)c2ccccc2oc1=O (stereo not drawn) | > 100 µM (inactive) | 76.6 µM (inactive) | > 100 | 76.4 µM (inactive) | > 100 µM (inactive) | > 100 µM (inactive) | > 100 µM (inactive) | – | – | > 100 µM (inactive) | > 100 µM (inactive) | > 100 µM (inactive) | > 100 µM (inactive) | – | > 100 µM (inactive) | 18 µM (inactive) | 50.7 µM (inactive) | > 100 µM (inactive) | > 100 µM (inactive) | –
7 | N#C/C(=C1\SC(C(N)=O)=C(N)N1c1ccccc1)c1nc2ccccc2[nH]1 | > 100 µM (inactive) | 59 µM (inactive) | > 100 | > 100 µM (inactive) | > 100 µM (inactive) | > 100 µM (inactive) | > 100 µM (inactive) | – | – | > 100 µM (inactive) | > 100 µM (inactive) | > 100 µM (inactive) | > 100 µM (inactive) | 39.5 µM (inactive) | – | > 100 µM (inactive) | > 100 µM (inactive) | > 100 µM (inactive) | > 100 µM (inactive) | –
8 | O=c1c(C(c2ccc([N+](=O)[O-])cc2)c2c(O)c3ccccc3n(-c3ccccc3)c2=O)c(O)c2ccccc2n1-c1ccccc1 | 1.51 µM (inactive) | 23.2 µM (inactive) | 10.1 | – | 16.6 µM (inactive) | 27.2 µM (inactive) | – | – | – | 2.7 µM (inactive) | 14.9 µM (inactive) | 18.4 µM (inactive) | 44.4 µM (inactive) | 9.18 µM (inactive) | 17.7 µM (inactive) | 24.1 µM (inactive) | 51.9 µM (inactive) | 15.3 µM (inactive) | 7.28 µM (inactive) | –
9 | NC(=O)C(=O)C1C(=O)N(c2ccccc2)N=C1N (stereo not drawn) | – | > 100 µM (inactive) | > 100 | > 100 µM (inactive) | > 100 µM (inactive) | > 100 µM (inactive) | > 100 µM (inactive) | – | – | > 100 µM (inactive) | > 100 µM (inactive) | > 100 µM (inactive) | > 100 µM (inactive) | > 100 µM (inactive) | > 100 µM (inactive) | > 100 µM (inactive) | > 100 µM (inactive) | > 100 µM (inactive) | > 100 µM (inactive) | –
10 | CC(C)C(C(=O)O)N(CC1(O)OCC(O)C(O)C1O)N=O (stereo not drawn) | > 100 µM (inactive) | > 100 µM (inactive) | – | > 100 µM (inactive) | > 100 µM (inactive) | > 100 µM (inactive) | > 100 µM (inactive) | – | – | > 100 µM (inactive) | > 100 µM (inactive) | > 100 µM (inactive) | – | > 100 µM (inactive) | > 100 µM (inactive) | – | > 100 µM (inactive) | – | – | –
11 | O=C(CCc1ccccc1)NS(=O)(=O)c1ccccc1 | > 100 µM (inactive) | > 100 µM (inactive) | – | > 100 µM (inactive) | > 100 µM (inactive) | > 100 µM (inactive) | > 100 µM (inactive) | – | – | > 100 µM (inactive) | > 100 µM (inactive) | > 100 µM (inactive) | > 100 µM (inactive) | > 100 µM (inactive) | > 100 µM (inactive) | > 100 µM (inactive) | > 100 µM (inactive) | > 100 µM (inactive) | > 100 µM (inactive) | –
12 | CSc1nc2c(nc(N)n2C2OC(COC(C)=O)C(OC(C)=O)C(OC(C)=O)C2OC(C)=O)c(=O)n1C (stereo not drawn) | > 100 µM (inactive) | > 100 µM (inactive) | > 100 | > 100 µM (inactive) | > 100 µM (inactive) | > 100 µM (inactive) | > 100 µM (inactive) | – | – | > 100 µM (inactive) | > 100 µM (inactive) | > 100 µM (inactive) | > 100 µM (inactive) | > 100 µM (inactive) | > 100 µM (inactive) | > 100 µM (inactive) | > 100 µM (inactive) | – | > 100 µM (inactive) | –
13 | Cc1cc(N(CCC#N)S(=O)(=O)c2ccccc2)ccc1C=O | > 100 µM (inactive) | > 100 µM (inactive) | > 100 | > 100 µM (inactive) | > 100 µM (inactive) | > 100 µM (inactive) | > 100 µM (inactive) | – | – | > 100 µM (inactive) | > 100 µM (inactive) | > 100 µM (inactive) | > 100 µM (inactive) | – | > 100 µM (inactive) | > 100 µM (inactive) | > 100 µM (inactive) | > 100 µM (inactive) | > 100 µM (inactive) | –
14 | O=C(CC(=O)c1cccc2ccccc12)C(=O)Nc1nccs1 | > 100 µM (inactive) | > 100 µM (inactive) | > 100 | > 100 µM (inactive) | > 100 µM (inactive) | > 100 µM (inactive) | > 100 µM (inactive) | – | – | > 100 µM (inactive) | > 100 µM (inactive) | > 100 µM (inactive) | > 100 µM (inactive) | > 100 µM (inactive) | > 100 µM (inactive) | > 100 µM (inactive) | > 100 µM (inactive) | > 100 µM (inactive) | – | –
15 | CN(C)CC1(C)CC/C(=C\c2ccc3c(c2)OCO3)C1=O (stereo not drawn) | 59.4 µM (inactive) | > 100 µM (inactive) | > 100 | – | 53.6 µM (inactive) | 3.72 µM (inactive) | > 100 µM (inactive) | – | – | 96.4 µM (inactive) | > 100 µM (inactive) | 92.9 µM (inactive) | 6.58 µM (inactive) | > 100 µM (inactive) | > 100 µM (inactive) | > 100 µM (inactive) | > 100 µM (inactive) | > 100 µM (inactive) | > 100 µM (inactive) | –
16 | Clc1ccc2c(c1)-c1c3c(nn1-c1ccccc1)-c1ccccc1SC3O2 (stereo not drawn) | 44.9 µM (inactive) | > 100 µM (inactive) | – | 79.4 µM (inactive) | 75.3 µM (inactive) | > 100 µM (inactive) | – | – | – | > 100 µM (inactive) | > 100 µM (inactive) | > 100 µM (inactive) | – | 35.7 µM (inactive) | > 100 µM (inactive) | – | > 100 µM (inactive) | > 100 µM (inactive) | – | –
17 | NC(N)=NN/C(=C1/N=c2ccc([N+](=O)[O-])cc2=NC1=O)C(O)c1ccco1 (stereo not drawn) | 67.1 µM (inactive) | > 100 µM (inactive) | > 100 | 35.9 µM (inactive) | 54.3 µM (inactive) | > 100 µM (inactive) | > 100 µM (inactive) | – | – | > 100 µM (inactive) | > 100 µM (inactive) | > 100 µM (inactive) | > 100 µM (inactive) | > 100 µM (inactive) | > 100 µM (inactive) | > 100 µM (inactive) | > 100 µM (inactive) | > 100 µM (inactive) | > 100 µM (inactive) | –
18 | C[C@H](N)C(=O)N[C@@H]1[C@H]2C(=C(O)C[C@@H](O)[C@@H]2O)C(=O)O[C@]1(C)C(Cl)Cl [BACTOBOLIN] | – | 0.105 µM (active) | 0.597 | – | – | 0.262 µM (active) | 0.128 µM (active) | 0.156 µM (active) | 0.105 µM (active) | – | 0.167 µM (active) | 0.145 µM (active) | 0.166 µM (active) | 0.111 µM (active) | 0.172 µM (active) | 0.195 µM (active) | 0.604 µM (active) | 0.184 µM (active) | 0.167 µM (active) | 0.125 µM (active)
